# Results published in patent publication US8609858B2, “Spiro derivatives of parthenin as novel anticancer agents” (Council of Scientific & Industrial Research, priority 2008, dated 2013).
# Legend:
# SW-620 = assay: In vitro cytotoxicity screening (sulphodamine B dye), SW-620; format: cell-based; settings: Homo sapiens
# Description: Cells at sub confluent stage were harvested from the flask by treatment with trypsin (0.5% in PBS containing 0.02% EDTA) for determination of cytotoxicity. […] The cell suspensions of required cell density were prepared in complete growth medium with gentamycin (50 μg/ml) for determination of cytotoxicity. The cells (100 μl/well) were inoculated in 96 well tissue culture plates. The cells were allowed to grow for 24 hrs temperature of 37° C. and in a humidified atmosphere of 5% CO2 in air. Stock solution of (20 mM) of test material was prepared in DMSO. The stock solution was serially diluted with complete growth medium containing 50 μg/ml of gentamycin to obtain […] working test solutions of 1., 2, 5, 10, 50 and 100 μM.
# The media were supplemented with FCS (10%), penicillin (100 Units/ml), streptomycin (100 μg/ml) and glutamine (2 mM) and cells were grown in CO2 incubator (Hera cell, Heraeus, USA) at 37° C. with 90% humidity and 5% CO2.
# MOLT-4 cells = assay: DNA cell cycle analysis by flow cytometry; format: cell-based, human; settings: for Sub G1 population: 24 hrs
# Description: Effect of “Compound-17” on DNA content by cell cycle phase distribution was assessed using human leukemia MOLT-4. The MOLT-4 cells (1×10^6 cells/ml) in RPMI-1640 medium were incubated with “Compound-17” (1, 10, 50 and 100 μM) for 24 hrs. The cells were then washed twice with ice-cold PBS, harvested, fixed with ice-cold PBS in 70% ethanol, and stored at −20° C. for 30 min. After fixation, the cells were incubated with RNase A (0.1 mg/ml) at 37° C. for 30 min, stained with propidium iodide (50 μg/ml) for 30 min on ice in dark, and then measured for DNA content using BD-LSR Flow cytometer (Becton Dickinson, USA) equipped with electronic doublet discrimination capability using blue (488 nm) excitation from argon laser. Data were collected in list mode on 10,000 events for FL2-A vs. FL2-W and analyzed (FIG. 3).^3d
# [1] = system: Ehrlich Ascites Tumor (EAT); assay: Anti tumor activity on solid Ehrlich Ascites Tumor (EAT) bearing mice; format: in vivo; settings: for % Tumor growth inhibition / Tumor Weight (mg) Mean ± SE: nine days, day 13
# Text: Non-inbred swiss albino mice from an in-house colony were used in the present study. The breeding and experimental animals were housed in standard size polycarbonate cages providing internationally recommended space for each animal. Animals were fed balanced mice feed supplied by MIs Ashirwad Industries, Chandigarh (India) and autoclaved water was available ad libitum. Animals were cared as per the guide for the care and use of laboratory animals (1996), ILAR, Washington D.C. They were housed in controlled conditions of temperature (23±2° C.), humidity (50-60%) and 12:12 hrs of light: dark cycle. The study and the number of animals used were approved by the institutional animal ethics committee, IIIM, Jammu, India. The study was conducted as per the protocols of National Cancer Institute (NCl), USA (Geran et al., 1972).
# Parthenin and its derivative Compound-17 were evaluated against solid Ehrlich Ascites Tumor (EAT) models at different doses. A standard procedure for experiment was as followed:
# Animals of the same sex weighing 20±3 g were injected 1×10^7 cells collected from the peritoneal cavity of non-inbred swiss mice, bearing 8-10 days old tumor cells, into the right thigh, intramuscularly (on Day 1). On next day animals were randomized and divided into test groups (7 animals in each test group) and one tumor control group (10 animals). Test groups were treated with different doses of Parthenin (10 mg/kg, 25 mg/kg and 50 mg/kg) and its derivative Compound-17 (10 mg/kg, 25 mg/kg and 50 mg/kg, 100 mg/kg and 200 mg/kg) suspension in 1% gum acacia in, their respective group intraperitonealy for nine consecutive days. Another test group was administered 5-FU @ 22 mg/kg i.p and served as positive control. The tumor contra group was similarly administered normal saline (0.2 ml i.p). The percent tumor growth-inhibition was measured on day 13 with respect to their tumor weight (Geran et al., 1972): Shortest and longest diameters of the tumor mass were measured with the help of vernier caliper and tumor weight (mg) was calculated by using following formula Tumor weight (mg)=Length (mm)×(Width (mm)^2/2 The average tumor weight for each group was calculated and the percent tumor growth inhibition in treated groups was calculated as follows: % Tumor Growth Inhibition=100×(Average tumor weight of control group−Average tumor weight of test group)/Average tumor weight of control group Anti Tumor Activity of Parthenin and its Derivative Compound-17 on Ehrlich Ascites Carcinoma (EAC)
smiles,measurement,setting,value
C[C@H]1CC[C@@H]2[C@@H](OC(=O)C23CC(c2c4ccccc4cc4ccccc24)=NO3)[C@]2(C)C(=O)C=C[C@@]12O (stereo partly shown) [Compound -17],IC50,SW-620; SW-620 colon cancer cell line,4.3 µM
same,inhibition at 5 µM,"SW-620; at 5 μM, SW-620, read-out: cell growth inhibition",72%
same,Sub G1 population,MOLT-4 cells; 1 μM,6.58%
same,Sub G1 population,MOLT-4 cells; 10 μM,33.09%
same,Sub G1 population,MOLT-4 cells; 50 μM,33.2%
same,blockage of G1 phase of cell cycle,MOLT-4 cells; 100 μM,complete blockage of G1 phase
same,Sub G1 population,MOLT-4 cells; 100 μM,55%
same,% Tumor growth inhibition,[1]; 10 mg/kg i.p.,9.44%
same,Tumor Weight (mg) Mean ± SE,[1]; 10 mg/kg i.p.,1547.14 ± 36.63 mg
same,% Tumor growth inhibition,[1]; 25 mg/kg i.p.,15.38%
same,Tumor Weight (mg) Mean ± SE,[1]; 25 mg/kg i.p.,1445.71 ± 41.52 mg
same,% Tumor growth inhibition,[1]; 50 mg/kg i.p.,22.03%
same,Tumor Weight (mg) Mean ± SE,[1]; 50 mg/kg i.p.,1332.14 ± 32.59 mg
same,% Tumor growth inhibition,[1]; 100 mg/kg i.p.,35.11%
same,Tumor Weight (mg) Mean ± SE,[1]; 100 mg/kg i.p.,1108.57 ± 38.02 mg
same,mortality of test animals,"[1]; 200 mg/kg i.p., EAT bearing mice",All animals died by 3rd day
